Legend:
VBC complex = VBC complex (Homo sapiens, UniProt P40337); assay: Isothermal titration calorimetry (ITC) of VHL ligands against VBC; assay type: binding; settings: FIG. 3
Method: ITC Data on the Binding of VHL Ligands 14b and 14d
Titrations were performed on an ITC200 micro-calorimeter (GE Healthcare). Compounds 14b and 14d were diluted from a DMSO stock solution to 0.6 mM in a 20 mM HEPES, 150 mM NaCl, 1 mM TCEP (pH 7) buffer. The compound was titrated against 60 μM VBC complex, equilibrated in the same buffer. Total amount of DMSO in the buffer was 3%. The data were fitted to a single binding site model to obtain the stoichiometry n, the dissociation constant Kd and the enthalpy of binding ΔH using the Microcal LLC ITC200 Origin software provided by the manufacturer.

BRD4 = settings: Zengerle et al. 2015; cited from earlier work
VHL = VHL (Homo sapiens, UniProt P40337); settings: as reported in Galdeano et al. 2014 and Zengerle et al. 2015; cited from earlier work
VHL, sequence (P40337 54-213 limits assumed): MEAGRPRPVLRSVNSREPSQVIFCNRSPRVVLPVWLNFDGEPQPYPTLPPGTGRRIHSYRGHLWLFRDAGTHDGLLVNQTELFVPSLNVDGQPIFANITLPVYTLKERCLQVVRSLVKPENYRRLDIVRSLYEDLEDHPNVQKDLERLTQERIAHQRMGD
VHL, sequence (Q15370 1-104 partner limits assumed): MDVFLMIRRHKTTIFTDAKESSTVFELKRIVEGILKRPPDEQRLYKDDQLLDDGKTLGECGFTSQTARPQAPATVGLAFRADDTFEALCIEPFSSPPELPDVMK
VHL, sequence (Q15369 17-112 partner limits assumed): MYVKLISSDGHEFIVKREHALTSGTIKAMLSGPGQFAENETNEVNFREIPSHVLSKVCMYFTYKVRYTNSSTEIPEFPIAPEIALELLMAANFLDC

VBC complex, sequence (P40337 54-213 limits assumed): as the sequence (P40337 54-213 limits assumed) above
VBC complex, sequence (Q15370 1-104 partner limits assumed): as the sequence (Q15370 1-104 partner limits assumed) above
VBC complex, sequence (Q15369 17-112 partner limits assumed): as the sequence (Q15369 17-112 partner limits assumed) above

SMILES	Kd (VBC complex) [nM]	ΔH (VBC complex) [kcal/mol]	ΔS (VBC complex) [cal/mol/deg]	removal of BRD4 over BRD2 and BRD3 (BRD4)	binding to VHL (VHL)
CC(=O)N[C@H](C(=O)N1C[C@H](O)[C@H](F)[C@H]1C(=O)NCc1ccc(-c2scnc2C)cc1)C(C)(C)C [Compound 14b]	235	-6.566	8.30	–	–
CC(=O)N[C@H](C(=O)N1C[C@H](O)[C@@H](F)[C@H]1C(=O)NCc1ccc(-c2scnc2C)cc1)C(C)(C)C [Compound 14d]	235	-6.566	8.30	–	–
Cc1ncsc1-c1ccc(CNC(=O)[C@@H]2C[C@@H](O)CN2C(=O)[C@@H](NC(=O)COCCOCCOCCNC(=O)C[C@@H]2N=C(c3ccc(Cl)cc3)c3c(sc(C)c3C)-n3c(C)nnc32)C(C)(C)C)cc1 [MZ1, (2S,4R)-1-((S)-2-(tert-butyl)-17-((S)-4-(4-chlorophenyl)-2,3,9-trimethyl-6H-thieno[3,2-f][1,2,4]triazolo[4,3-a][1,4]diazepin-6-yl)-4,16-dioxo-6,9,12-trioxa-3,15-diazaheptadecanoyl)-4-hydroxy-N-(4-(4-methylthiazol-5-yl)benzyl)pyrrolidine-2-carboxamide]	–	–	–	potently and rapidly induce reversible, long-lasting and unexpectedly selective removal of BRD4 over BRD2 and BRD3	found to bind VHL
Cc1ncsc1-c1ccc(CNC(=O)[C@@H]2C[C@H](O)CN2C(=O)[C@@H](NC(=O)COCCOCCOCCNC(=O)C[C@@H]2N=C(c3ccc(Cl)cc3)c3c(sc(C)c3C)-n3c(C)nnc32)C(C)(C)C)cc1 [cisMZ1, (2S,4S)-1-((S)-2-(tert-butyl)-17-((S)-4-(4-chlorophenyl)-2,3,9-trimethyl-6H-thieno[3,2-f][1,2,4]triazolo[4,3-a][1,4]diazepin-6-yl)-4,16-dioxo-6,9,12-trioxa-3,15-diazaheptadecanoyl)-4-hydroxy-N-(4-(4-methylthiazol-5-yl)benzyl)pyrrolidine-2-carboxamide]	–	–	–	–	did not exhibit any measureable binding affinity for VHL

From patent US11234988B2, “Fluorohydroxyproline derivatives useful in the preparation of proteolysis targeted chimeras” (UNIVERSITY OF DUNDEE, priority 2016, dated 2022)
